Test results published in US11001560B2, “Compound for blocking absorption of heavy metals by plants and a composition containing the same” (SICHUAN HUI TAI AGRICULTURAL TECHNOLOGY CO. LTD., priority 2018, dated 2021).

Assays:
bok choy = assay: Potted experiment: effect of compound of formula I on reducing heavy metal (Cd, Pb) content in vegetables; format: in vivo
Protocol: (§1) Potted experiments were carried out. The test soil was collected from the topsoil (0-20 cm) of farmland in the outskirts of Chengdu, Sichuan Province. The soil type was purple soil, with a total lead content of 1209.21 mg kg^−1 and a total cadmium content of 8.06 mg kg^−1. After the soil samples were collected, the plant residues were removed, air-dried, and passed through a 5 mm siever for later use. Test plants were bok choy and pepper. The sieved soil was filled into a tray, and 80 g of soil was filled in each tray. Before the planting, watering was carried out for 3 days to maintain the field water holding capacity of about 60%. Seeds of uniform size were selected. The surface of the seed was sterilized with ethanol: 30% H2O2 (V:V=1:1) for 3 minutes, and rinsed with sterile deionized water. The sterilized plant seeds were divided into two groups. One group was soaked in a deionized aqueous solution (5 g/L) of the compound of formula I for 4 hours, and was set as the experimental group. The other group was soaked in deionized water for the same time as the control group. The process was repeated 4 times. The seeds after soaking were sowed in a pot. After 1 week after emergence, 3 plants were left in each pot. The above soaking treatment was performed again, and the roots of the experimental group and the control group were soaked with 5 mL of an aqueous solution containing a compound of formula I and deionized water per pot, respectively. Watering the plant daily was necessary to ensure the necessary water for plant growth. Plants were harvested after 40 days of growth. The plants were removed from the pot and washed with deionized water. After harvesting, the plants were cut into roots and above ground parts along the junction of the rhizomes. The plants were put in an oven at 105° C. for 15 minutes, dried at 70° C., and weighed the dry weight of roots and above ground parts. The plant samples were grounded and digested by the nitric acid-perchloric acid method. The contents of heavy metals Pb and Cd in the plants were determined by atomic absorption spectrophotometer.

pepper = assay: as above; format: in vivo
Protocol: as §1

[1] = experimental group (5 g/L compound of formula I) vs deionized water control
[2] = seeds soaked 4 hours in 5 g/L aqueous solution, roots soaked again with 5 mL per pot, Pb/Cd-contaminated soil, harvested after 40 days, atomic absorption

Compound: C/C=C/C(C[C@]1(O)CCNC[C@H](O)CCC2C=CCC(=O)C2C(=O)C/C=C/C=C/C[C@@H](O)C1)OC (stereo partly shown) [compound of formula I]
- Cd and Pb concentrations in the above ground parts and below ground parts of bok choy, compared with the control group (bok choy; [1]): significantly reduce
- Cd Concentration in Vegetables, Above Ground Parts, Bok Choy (bok choy; [2]): 2.08 ± 0.19 mg/L
- Cd Concentration in Vegetables, Below Ground Parts, Bok Choy (bok choy; [2]): 2.01 ± 0.33 mg/L
- Pb Concentration in Vegetables, Above Ground Parts, Bok Choy (bok choy; [2]): 1.51 ± 0.06 mg/L
- Pb Concentration in Vegetables, Below Ground Parts, Bok Choy (bok choy; [2]): 6.71 ± 1.08 mg/L
- Cd and Pb concentrations in the above ground parts and below ground parts of peppers, compared with the control group (pepper; [1]): significantly reduce
- Cd Concentration in Vegetables, Above Ground Parts, Pepper (pepper; [2]): 2.89 ± 0.39 mg/L
- Cd Concentration in Vegetables, Below Ground Parts, Pepper (pepper; [2]): 4.58 ± 0.11 mg/L
- Pb Concentration in Vegetables, Above Ground Parts, Pepper (pepper; [2]): 1.32 ± 0.08 mg/L
- Pb Concentration in Vegetables, Below Ground Parts, Pepper (pepper; [2]): 5.11 ± 0.63 mg/L
